This assay deals with PD-1/PD-L1 (Homo sapiens (Human), UniProt Q9NZQ7). Kind of assay: PD-1/PD-L1 Homogeneous Time-Resolved Fluorescence (HTRF) Binding Assay. The following applies: recombinant human PD-1 (3 nM) and PD-L1 (10 nM), 25° C., PBS pH 7.4. An outline of the steps: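 Fc-tagged human PD-1 (25-167, 3 nM) and His-tagged PD-L1 (19-238, 10 nM) preincubated with inhibitor 40 min in PBS pH 7.4, 0.05% Tween-20, 0.1% BSA, 1% DMSO, 25 °C. Binding detected by HTRF (Eu anti-IgG/APC anti-His, 665/620 nm) after 60 min; IC50 from percent control activity.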
A general note: Time-resolved FRET reads energy transfer from a long-lived donor to a nearby acceptor.

Each structure is given as a SMILES string. Where only a bound is given, the exact number is not on record here.

These results are taken from patent publication US10308644B2, “Heterocyclic compounds as immunomodulators” (Incyte Corporation, priority 2016, dated 2019).

Chain of PD-1/PD-L1 (Q9NZQ7 19-238): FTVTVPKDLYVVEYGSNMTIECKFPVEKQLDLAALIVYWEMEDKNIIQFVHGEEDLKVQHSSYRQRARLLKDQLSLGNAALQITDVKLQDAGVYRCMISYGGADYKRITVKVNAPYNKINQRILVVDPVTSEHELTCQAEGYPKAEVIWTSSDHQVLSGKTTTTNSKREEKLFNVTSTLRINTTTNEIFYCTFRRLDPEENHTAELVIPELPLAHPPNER

For `Cc1c(Nc2nccc3cc(CN[C@@H](C)CO)cnc23)cccc1-c1cccc(-c2nc3cc(CN4CC[C@@H](C(=O)O)C4)cc(C#N)c3o2)c1C` [Example 257, (R)-1-((7-cyano-2-(3′-(3-(((S)-1-hydroxypropan-2-ylamino)methyl)-1,7-naphthyridin-8-ylamino)-2,2′-dimethylbiphenyl-3-yl)benzo[d]oxazol-5-yl)methyl)pyrrolidine-3-carboxylic acid], the IC50 was not above 10 nM.

For `Cc1c(Nc2nccc3cc(CN[C@H](C)CO)cnc23)cccc1-c1cccc(-c2nc3cc(CN4CC[C@@H](C(=O)O)C4)cc(C#N)c3o2)c1C` [Example 258, (R)-1-((7-cyano-2-(3′-(3-(((R)-1-hydroxypropan-2-ylamino)methyl)-1,7-naphthyridin-8-ylamino)-2,2′-dimethylbiphenyl-3-yl)benzo[d]oxazol-5-yl)methyl)pyrrolidine-3-carboxylic acid], the IC50 is not above 10 nM. In the case of `Cc1c(NC(=O)c2nc3c(n2C)CCN(C)C3)cccc1-c1cccc(-c2nc3cc(CN4CCC(C(=O)O)CC4)cc(C#N)c3o2)c1C` [Example 259, 1-((7-cyano-2-(3′-(1,5-dimethyl-4,5,6,7-tetrahydro-1H-imidazo[4,5-c]pyridine-2-carboxamido)-2,2′-dimethylbiphenyl-3-yl)benzo[d]oxazol-5-yl)methyl)piperidine-4-carboxylic acid], the IC50 is not above 10 nM.

On to `Cc1c(NC(=O)c2nc3c(n2C)CCN(C)C3)cccc1-c1cccc(-c2nc3cc(CN4CC[C@@](C)(C(=O)O)C4)cc(C#N)c3o2)c1C` [Example 260, (R)-1-((7-cyano-2-(3′-(1,5-dimethyl-4,5,6,7-tetrahydro-1H-imidazo[4,5-c]pyridine-2-carboxamido)-2,2′-dimethylbiphenyl-3-yl)benzo[d]oxazol-5-yl)methyl)-3-methylpyrrolidine-3-carboxylic acid], for which the IC50 was not above 10 nM. As for `Cc1c(-c2nc3cc(CN4CC[C@@H](O)C4)cc(C#N)c3o2)cccc1-c1cccc(NC(=O)c2nc3c(n2C)CCN(C[C@H]2CC[C@H](C(=O)O)CC2)C3)c1Cl` [Example 261, trans-4-((2-(2-chloro-3′-(7-cyano-5-(((R)-3-hydroxypyrrolidin-1-yl)methyl)benzo[d]oxazol-2-yl)-2′-methylbiphenyl-3-ylcarbamoyl)-1-methyl-6,7-dihydro-1H-imidazo[4,5-c]pyridin-5 (4H)-yl)methyl)cyclohexanecarboxylic acid], the IC50 was not above 10 nM. Turning to `Cc1c(-c2nc3cc(CN4CC[C@@H](O)C4)cc(C#N)c3o2)cccc1-c1cccc(NC(=O)c2nc3c(n2C)CCN(CC24CC(C(=O)O)(C2)C4)C3)c1Cl` [Example 262, (R)-3-((2-(2-chloro-3′-(7-cyano-5-((3-hydroxypyrrolidin-1-yl)methyl)benzo[d]oxazol-2-yl)-2′-methylbiphenyl-3-yl-carbamoyl)-1-methyl-6,7-dihydro-1H-imidazo[4,5-c]pyridin-5(4H)-yl)methyl)bicyclo[1.1.1]-pentane-1-carboxylic acid], the IC50 was not above 10 nM. In the case of `Cc1c(-c2nc3cc(CN4CC[C@@H](O)C4)cc(C#N)c3o2)cccc1-c1cccc(NC(=O)c2nc3c(n2C)CCN(C2CC(C)(C(=O)O)C2)C3)c1Cl` (stereo partly drawn) [Example 263, (R)-3-(2-(2-chloro-3′-(7-cyano-5-((3-hydroxypyrrolidin-1-yl)-methyl)benzo[d]oxazol-2-yl)-2′-methylbiphenyl-3-ylcarbamoyl)-1-methyl-6,7-dihydro-1H-imidazo[4,5-c]pyridin-5(4H)-yl)-1-methylcyclobutanecarboxylic acid], the IC50 is not above 10 nM. For `Cc1c(-c2nc3cc(CN4CC[C@@H](O)C4)cc(C#N)c3o2)cccc1-c1cccc(NC(=O)c2nc3c(n2C)CCN(C2CCCC(C(=O)O)CC2)C3)c1Cl` (stereo partly drawn) [Example 264, 4-(2-(2-chloro-3′-(7-cyano-5-(((R)-3-hydroxypyrrolidin-1-yl)methyl)benzo[d]oxazol-2-yl)-2′-methylbiphenyl-3-ylcarbamoyl)-1-methyl-6,7-dihydro-1H-imidazo[4,5-c]pyridin-5(4H)-yl)cycloheptane carboxylic acid], the IC50 is not above 10 nM.

In general, IC50 refers to the concentration that inhibits the measured activity by half.
